Target: T1, Fatty-acid amide hydrolase 1 (Mus musculus, UniProt O08914)
T1 sequence (O08914 whole entry): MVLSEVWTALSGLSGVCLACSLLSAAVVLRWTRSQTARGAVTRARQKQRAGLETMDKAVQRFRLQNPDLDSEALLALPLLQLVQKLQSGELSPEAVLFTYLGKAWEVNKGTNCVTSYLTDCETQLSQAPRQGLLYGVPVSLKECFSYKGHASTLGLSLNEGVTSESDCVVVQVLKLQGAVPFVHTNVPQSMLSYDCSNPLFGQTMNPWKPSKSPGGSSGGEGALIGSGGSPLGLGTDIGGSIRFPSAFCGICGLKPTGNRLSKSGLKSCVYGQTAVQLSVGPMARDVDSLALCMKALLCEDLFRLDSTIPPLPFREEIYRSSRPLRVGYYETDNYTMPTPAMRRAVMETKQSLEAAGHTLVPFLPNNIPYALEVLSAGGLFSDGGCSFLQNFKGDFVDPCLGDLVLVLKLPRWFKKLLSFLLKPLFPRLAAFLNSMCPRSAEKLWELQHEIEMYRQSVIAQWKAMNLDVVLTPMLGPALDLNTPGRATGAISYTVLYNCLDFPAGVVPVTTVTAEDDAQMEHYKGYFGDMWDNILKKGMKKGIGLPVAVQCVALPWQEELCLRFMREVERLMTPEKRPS
Test: Inhibitory concentration against mouse fatty acid amide hydrolase
Type: functional

`NC(=O)CCC/C=C\C/C=C\C/C=C\C/C=C\CCCCCC12CC3CC(CC(C3)C1)C2` showed an IC50 of 37.4 µM.
